# From publication PMC12155096 (International Journal of Molecular Sciences, 2025)
# Counter-ions that a name gives are not always drawn. Like-named read-outs stand apart in the source and are kept apart here.
# Tests used:
# human CYP2D6 [1] = biological target: T1, human CYP2D6 (Homo sapiens, UniProt P10635); test: biochemical
# human CYP2C19 [2] = biological target: T2, human CYP2C19 (Homo sapiens, UniProt P33261); test: biochemical; conditions: for AC50: CYP2C19 AC50 (half-maximal activity concentration)
# human CYP2C9 [3] = biological target: T3, human CYP2C9 (Homo sapiens, UniProt P11712); test: biochemical
# human CYP1A2 [4] = biological target: T4, human CYP1A2 (Homo sapiens, UniProt P05177); test: biochemical
# T4 sequence (P05177 1-516): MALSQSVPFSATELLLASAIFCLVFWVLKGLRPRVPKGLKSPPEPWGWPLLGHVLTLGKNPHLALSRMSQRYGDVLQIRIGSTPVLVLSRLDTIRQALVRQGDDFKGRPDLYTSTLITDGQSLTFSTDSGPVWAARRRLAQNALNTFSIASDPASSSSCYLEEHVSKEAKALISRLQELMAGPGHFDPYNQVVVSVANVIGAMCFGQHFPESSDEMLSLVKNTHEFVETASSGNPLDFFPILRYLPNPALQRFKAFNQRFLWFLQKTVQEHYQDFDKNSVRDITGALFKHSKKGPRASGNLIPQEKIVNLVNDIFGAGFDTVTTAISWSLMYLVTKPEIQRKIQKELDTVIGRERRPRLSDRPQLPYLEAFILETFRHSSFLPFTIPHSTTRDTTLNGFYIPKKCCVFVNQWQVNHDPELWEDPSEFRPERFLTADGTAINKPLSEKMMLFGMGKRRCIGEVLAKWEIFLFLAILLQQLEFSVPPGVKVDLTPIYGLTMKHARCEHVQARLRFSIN
# human CYP2D6 [5] = biological target: T1, human CYP2D6; conditions: human
# human CYP2C19 [6] = biological target: T2, human CYP2C19; conditions: for CYP2C19 Efficacy (in parenthesis): human
# human CYP2C9 [7] = biological target: T3, human CYP2C9; conditions: human
# human CYP1A2 [8] = biological target: T4, human CYP1A2
# [9] = CYP2D6 IC50 (half-maximal inhibitory concentration)
# [10] = CYP2C19 IC50 (half-maximal inhibitory concentration)
# [11] = CYP2C9 IC50 (half-maximal inhibitory concentration)
# [12] = CYP2D6 AC50 (half-maximal activity concentration)
# [13] = CYP2C9 AC50 (half-maximal activity concentration)
# T1 sequence (P10635 whole entry): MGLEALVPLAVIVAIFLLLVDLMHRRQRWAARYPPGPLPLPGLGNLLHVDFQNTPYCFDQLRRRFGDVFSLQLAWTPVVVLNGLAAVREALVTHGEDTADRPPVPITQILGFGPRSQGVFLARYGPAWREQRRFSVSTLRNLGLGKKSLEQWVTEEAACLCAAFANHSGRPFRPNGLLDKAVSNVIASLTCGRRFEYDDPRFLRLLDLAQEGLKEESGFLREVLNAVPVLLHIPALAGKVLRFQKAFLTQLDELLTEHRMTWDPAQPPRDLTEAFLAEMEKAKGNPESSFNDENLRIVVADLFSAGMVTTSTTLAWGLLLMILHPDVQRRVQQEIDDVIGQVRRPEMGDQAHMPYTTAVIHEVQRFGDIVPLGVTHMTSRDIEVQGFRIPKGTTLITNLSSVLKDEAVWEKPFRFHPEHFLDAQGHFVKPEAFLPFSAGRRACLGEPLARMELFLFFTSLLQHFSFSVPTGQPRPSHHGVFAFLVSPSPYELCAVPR
# T3 sequence (P11712 whole entry): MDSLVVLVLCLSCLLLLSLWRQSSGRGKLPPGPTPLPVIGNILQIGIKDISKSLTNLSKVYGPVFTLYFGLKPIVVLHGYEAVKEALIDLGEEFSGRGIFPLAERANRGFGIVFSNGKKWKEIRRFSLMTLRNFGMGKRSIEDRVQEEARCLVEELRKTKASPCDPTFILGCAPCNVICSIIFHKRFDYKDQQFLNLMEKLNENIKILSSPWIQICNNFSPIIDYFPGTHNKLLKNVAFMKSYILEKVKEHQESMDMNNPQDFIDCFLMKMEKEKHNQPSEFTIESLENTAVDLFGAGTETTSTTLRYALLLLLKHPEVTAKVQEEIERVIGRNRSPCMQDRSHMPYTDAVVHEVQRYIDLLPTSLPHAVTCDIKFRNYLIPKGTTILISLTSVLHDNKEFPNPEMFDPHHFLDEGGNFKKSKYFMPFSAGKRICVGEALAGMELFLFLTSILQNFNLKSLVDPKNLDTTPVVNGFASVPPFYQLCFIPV
# T2 sequence (P33261 whole entry): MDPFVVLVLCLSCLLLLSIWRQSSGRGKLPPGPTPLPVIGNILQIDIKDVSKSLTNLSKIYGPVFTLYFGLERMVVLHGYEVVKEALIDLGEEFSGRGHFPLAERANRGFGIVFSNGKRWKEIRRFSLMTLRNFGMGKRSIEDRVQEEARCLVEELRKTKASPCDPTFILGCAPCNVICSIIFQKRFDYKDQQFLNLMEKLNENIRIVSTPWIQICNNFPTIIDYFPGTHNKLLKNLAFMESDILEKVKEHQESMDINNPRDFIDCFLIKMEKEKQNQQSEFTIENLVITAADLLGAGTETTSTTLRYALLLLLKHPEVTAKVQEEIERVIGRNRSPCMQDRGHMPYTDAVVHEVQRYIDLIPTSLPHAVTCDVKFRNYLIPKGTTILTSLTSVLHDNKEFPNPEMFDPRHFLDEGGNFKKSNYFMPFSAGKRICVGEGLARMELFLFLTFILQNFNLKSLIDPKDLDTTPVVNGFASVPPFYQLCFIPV
structure (smiles),measurement,setting,value
O=C(Nc1ccccc1)OCC(CN1CCCCC1)OC(=O)Nc1ccccc1 (stereo not shown) [Diperodon hydrochloride],IC50,human CYP2D6 [1]; [9],0.36 µM
same,IC50,human CYP2C19 [2]; [10],7.12 µM
same,IC50,human CYP2C9 [3]; [11],20.8 µM
CCCC(=O)O[C@]1(C(=O)CCl)[C@@H](C)C[C@H]2[C@@H]3CCC4=CC(=O)C=C[C@]4(C)[C@@]3(F)C(=O)C[C@@]21C [Clobetasone butyrate],IC50,human CYP2D6 [1]; [9],7.77 µM
same,IC50,human CYP2C19 [2]; [10],8.43 µM
same,IC50,human CYP2C9 [3]; [11],17.6 µM
CN1CCCN=C1COC(=O)C(O)(c1ccccc1)C1CCCCC1 (stereo not shown) [Oxyphencyclimine hydrochloride],IC50,human CYP2D6 [1],0.92 µM
same,IC50,human CYP1A2 [4],14.6 µM
CN1CCN(CCCN2c3ccccc3Sc3ccc(S(=O)(=O)N(C)C)cc32)CC1 [Thioproperazine dimethanesulfonate],IC50,human CYP2D6 [1],15.5 µM
same,IC50,human CYP1A2 [4],24.1 ± 9.56 µM
same,IC50,human CYP2C9 [3],17.4 µM
CCCCC(=O)O[C@]1(C(=O)CO)[C@@H](C)C[C@H]2[C@@H]3CCC4=CC(=O)C=C[C@]4(C)[C@@]3(F)[C@@H](O)C[C@@]21C [Betamethasone valerate],IC50,human CYP2D6 [1]; [9],39.1 µM
same,IC50,human CYP2C19 [2]; [10],31.1 µM
same,IC50,human CYP2C9 [3]; [11],17.4 µM
"C[C@@H]1C[C@H]2[C@@H]3CCC4=CC(=O)C=C[C@]4(C)[C@@]3(Cl)[C@@H](O)C[C@]2(C)[C@@]1(OC(=O)c1ccco1)C(=O)CCl [Mometasone furoate, reference compound]",IC50,human CYP2D6 [1]; [9],3.75 µM
same,IC50,human CYP2C19 [2]; [10],7.97 µM
same,IC50,human CYP2C9 [3]; [11],8.08 µM
CCN(CC)CCOc1ccccc1C(=O)CCc1ccccc1 [Etafenone],IC50,human CYP2D6 [1],0.64 ± 0.08 µM
same,IC50,human CYP2C19 [2],35.6 ± 11.4 µM
same,IC50,human CYP1A2 [4],6.05 ± 1.51 µM
CCCCOc1ccc(C(=O)CCN2CCCCC2)cc1 [Dyclonine hydrochloride],AC50,human CYP2D6 [1]; [12],6.92 µM
same,AC50,human CYP2C9 [3]; [13],14.5 µM
CC1(C)CCC(=Cc2ccc(Cl)cc2)C1(O)Cn1cncn1 (stereo not shown) [Triticonazole],CYP2D6 Efficacy (in parenthesis),human CYP2D6 [5],9.5 ± 2.8 (-97 ± 3) %
same,IC50,human CYP2D6 [1]; [9],9.5 µM
same,IC50,human CYP2C19 [2]; [10],0.34 µM
same,IC50,human CYP2C9 [3]; [11],1.47 µM
same,CYP2C19 Efficacy (in parenthesis),human CYP2C19 [6],0.34 ± 0.15 (-129 ± 16) %
same,CYP2C9 Efficacy (in parenthesis),human CYP2C9 [7],1.47 ± 0.17 (-105 ± 3) %
CN1CCC(=C2c3ccccc3C=Cc3ccccc32)CC1 [Cyproheptadine hydrochloride],AC50,human CYP2D6 [1]; [12],2.67 µM
same,AC50,human CYP2C19 [2],21.5 µM
Cc1c(O)cccc1C(=O)N[C@@H](CSc1ccccc1)[C@H](O)CN1C[C@H]2CCCC[C@H]2C[C@H]1C(=O)NC(C)(C)C [Nelfinavir mesylate],IC50,human CYP2D6 [1]; [9],14.4 µM
same,IC50,human CYP2C19 [2]; [10],42.1 µM
same,IC50,human CYP2C9 [3]; [11],19.1 µM
O=C(CN1CCN(Cc2ccc3c(c2)OCO3)CC1)N1c2ccccc2Sc2ccccc21 [Fenoverine],IC50,human CYP2D6 [1]; [9],0.46 µM
same,IC50,human CYP2C19 [2]; [10],40.7 µM
same,IC50,human CYP2C9 [3]; [11],18.9 µM
CC(N/C(=N\C#N)Nc1ccncc1)C(C)(C)C (stereo not shown) [Pinacidil monohydrate],CYP2D6 Efficacy (in parenthesis),human CYP2D6 [5],25.27 ± 7.04 (-50 ± 9) %
same,IC50,human CYP2D6 [1]; [9],25.3 µM
same,IC50,human CYP2C19 [2]; [10],2.06 µM
same,IC50,human CYP2C9 [3]; [11],13.9 µM
same,CYP2C19 Efficacy (in parenthesis),human CYP2C19 [6],2.06 ± 0.47 (-116 ± 6) %
same,CYP2C9 Efficacy (in parenthesis),human CYP2C9 [7],13.86 ± 1.59 (-102 ± 3) %
Cn1cc(C(=O)[C@@H]2CCc3nc[nH]c3C2)c2ccccc21 [Ramosetron hydrochloride],AC50,human CYP2D6 [1],17.4 µM
same,AC50,human CYP1A2 [4],17.4 µM
same,AC50,human CYP2C9 [3],10.7 ± 4.21 µM
OC(CCN1CCCCC1)(c1ccccc1)C1CCCCC1 (stereo not shown) [Trihexyphenidyl hydrochloride],IC50,human CYP2D6 [1]; [9],0.76 µM
same,IC50,human CYP2C19 [2]; [10],17.2 µM
Clc1ccc(C(c2ccccc2Cl)C(Cl)Cl)cc1 (stereo not shown) [Mitotane],CYP2D6 Efficacy (in parenthesis),human CYP2D6 [5],32.45 ± 5.84 (-38 ± 9) %
same,AC50,human CYP2D6 [1]; [12],32.4 µM
same,IC50,human CYP2D6 [1]; [9],32.4 µM
same,AC50,human CYP2C19 [2],0.82 µM
same,IC50,human CYP2C19 [2]; [10],0.82 µM
same,AC50,human CYP2C9 [3]; [13],10.6 µM
same,IC50,human CYP2C9 [3]; [11],10.6 µM
same,CYP2C19 Efficacy (in parenthesis),human CYP2C19 [6],0.82 ± 0.15 (-131 ± 13) %
same,CYP2C9 Efficacy (in parenthesis),human CYP2C9 [7],10.57 ± 0.69 (-106 ± 4) %
N=C(N)NC(=O)Cc1c(Cl)cccc1Cl [Guanfacine hydrochloride],AC50,human CYP2D6 [1]; [12],25.8 µM
same,CYP1A2 AC50 (half-maximal activity concentration),human CYP1A2 [8],Inactive
same,AC50,human CYP2C9 [3]; [13],27.3 µM
same,CYP2C19 AC50 (half-maximal activity concentration),human CYP2C19 [6],Inactive
"CC(CCc1ccccc1)NCC(O)c1ccc(O)c(C(N)=O)c1 (stereo not shown) [labetalol, reference compound]",IC50,human CYP2D6 [1],0.6 µM
COC(=O)C1=C(C)NC(C)=C(C(=O)OC(C)(C)CN(C)CCC(c2ccccc2)c2ccccc2)C1c1cccc([N+](=O)[O-])c1 (stereo not shown) [Lercanidipine hydrochloride],IC50,human CYP2D6 [1],4.44 ± 1.02 µM
same,IC50,human CYP1A2 [4],32.8 ± 2.67 µM
same,IC50,human CYP2C9 [3],2.89 ± 0.52 µM
C=CCOC(Cn1ccnc1)c1ccc(Cl)cc1Cl (stereo not shown) [imazalil],IC50,human CYP2D6 [1]; [9],6.12 µM
same,IC50,human CYP2C19 [2]; [10],0.15 µM
same,IC50,human CYP2C9 [3]; [11],0.77 µM
CC(CCc1ccccc1)NC(C)C(O)c1ccc(O)cc1 (stereo not shown) [Nylidrin],AC50,human CYP2D6 [1]; [12],0.49 µM
same,IC50,human CYP2D6 [1]; [9],0.49 µM
same,AC50,human CYP2C19 [2],9.42 µM
same,IC50,human CYP2C19 [2]; [10],9.42 µM
same,AC50,human CYP1A2 [4]; CYP1A2 AC50 (half-maximal activity concentration),13.6 µM
same,IC50,human CYP1A2 [4]; CYP1A2 IC50 (half-maximal inhibitory concentration),13.6 µM
COc1ccc2c(c1OC)C(=O)O[C@@H]2[C@H]1c2c(cc3c(c2OC)OCO3)CCN1C [Noscapine],IC50,human CYP2D6 [1]; [9],12.9 µM
same,IC50,human CYP2C19 [2]; [10],1.38 µM
same,IC50,human CYP2C9 [3]; [11],0.84 µM
